Here are results for six compounds from patent US10787437B2, “Processes for the preparation of pyrazole derivatives useful as modulators of the 5-HT2A serotonin receptor” (Arena Pharmaceuticals, Inc., priority 2008, dated 2020).

The subject of one series is normal volunteers. Description: Afternoon nap model of insomnia in normal volunteers. It counts as in vivo, human. From the text: APD125, a potent and selective 5-HT2A serotonin receptor inverse agonist is a member of the genus disclosed in the European Patent EP1558582. […] Sleep onset latency was not decreased by APD125. In the afternoon nap model, APD125 decreased microarousals, the number of sleep stage shifts, and number of awakenings after sleep onset.

Another series relates to healthy adults. Description: Phase 1 trials, waking EEG. Type of series: in vivo, human.
Another series has as its system insomnia patients. Description: Phase 2 trial, measurements of sleep maintenance versus placebo. Type of series: in vivo, human. An excerpt:
The data from the APD125 Phase 2 study are consistent with Phase 1 data and support further development of APD125 for the treatment of insomnia patients who have difficulty maintaining sleep.

The subject of another series is diabetic rats. To be noted: cited from earlier work.
Series [1] concerns DOCA-salt induced hypertension. To be noted: rats; cited from earlier work.
Series [2] relates to spontaneously hypertensive rats. To be noted: cited from earlier work.
Another series concerns glaucoma patients. To be noted: cited from earlier work.
The target of another series is 5-HT2A (Homo sapiens, UniProt P28223). To be noted: cited from earlier work.
A further series relates to JC virus. To be noted: cited from earlier work.
A further series has as its system heatstroke. To be noted: in vivo; cited from earlier work.
For a further series, the system named is diabetic nephropathy. To be noted: 24 months of treatment; cited from earlier work.
The subject of the next series is inflammatory pain. To be noted: rats, intrathecal or intraperitoneal administration; cited from earlier work.
For a further series, the system named is lumbar disc herniation. To be noted: humans; cited from earlier work.
Another series concerns thermal induced pain. To be noted: rats, intraperitoneal administration; cited from earlier work.

Sequence of 5-HT2A (P28223 whole entry, species assumed): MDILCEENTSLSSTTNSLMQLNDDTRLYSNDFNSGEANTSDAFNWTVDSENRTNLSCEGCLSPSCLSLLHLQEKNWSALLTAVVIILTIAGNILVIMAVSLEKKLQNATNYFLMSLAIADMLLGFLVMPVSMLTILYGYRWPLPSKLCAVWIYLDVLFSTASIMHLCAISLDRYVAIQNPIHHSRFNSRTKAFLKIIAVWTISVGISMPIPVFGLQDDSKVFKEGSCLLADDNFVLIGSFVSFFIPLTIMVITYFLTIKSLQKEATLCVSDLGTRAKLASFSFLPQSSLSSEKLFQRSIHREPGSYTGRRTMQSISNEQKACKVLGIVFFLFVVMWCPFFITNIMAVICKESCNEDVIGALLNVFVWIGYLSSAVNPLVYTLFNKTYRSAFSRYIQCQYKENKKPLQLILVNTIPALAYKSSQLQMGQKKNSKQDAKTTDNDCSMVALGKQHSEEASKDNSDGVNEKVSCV

On to `COc1ccc(NC(=O)Nc2ccc(F)cc2F)cc1-c1c(Br)cnn1C` [APD125], for which, in the series on normal volunteers (afternoon nap model), the REM sleep result was “at the expense of REM sleep”, the microarousals entry was “decreased”, the “number of awakenings after sleep onset” value was “decreased” and the “number of sleep stage shifts” value is reported as “decreased”. Moreover, the sleep onset latency entry in the series on normal volunteers (afternoon nap model) is listed as “not decreased”. Moreover, the “slow wave sleep and associated parameters” value in the series with normal volunteers (primarily during the early part of sleep) is “increased slow wave sleep and associated parameters in a dose-dependent manner”. Moreover, in the series with healthy adults, the “dose of maximal vigilance-lowering effects on waking EEG” value is 40 to 80 mg and the “effects on waking EEG” value is recorded as “vigilance-lowering effects on waking EEG”. Also, in the series on healthy adults (after dosing), the “time of peak effects after dosing” value lay in the range of 2 to 4 h. Also, the “next day cognitive effects” value in the series on insomnia patients (Phase 2) is “without any limiting next day cognitive effects”. The “measurements of sleep maintenance” value in the series on insomnia patients (Phase 2, compared to placebo) was “statistically significant improvements”.
Consider `O=CN1CCC(C(=O)NCCN2CCC(=C3c4ccccc4C=Cc4ccccc43)CC2)CC1` [AT-1015], for which, in the series on diabetic rats, the “14.9% reduction in saphenous sensory conduction velocity” value (“14.9% reduction” below) is recorded as “completely reversed” and the “44.7% reduction in sciatic endoneurial blood flow” value (“44.7% reduction” for short) is recorded as “completely reversed”.
For `CN1CCN2c3ccccc3Cc3ccccc3C2C1` (stereo not drawn) [Mainserin], in series [1], the DOCA-salt induced hypertension result is “prevent”.
Turning to `O=C(c1ccc(F)cc1)C1CCN(CCn2c(=O)[nH]c3ccccc3c2=O)CC1` [ketanserin], the blood pressure result in series [2] was “stabilize blood pressure”. Further, in the series with glaucoma patients, the IOP entry is reported as “significantly lower”. Besides, on 5-HT2A, the “inverse agonist activity at 5-HT2A” value is listed as “have inverse agonist activity”. Moreover, the “JC virus infection of human glial cells” value in the series on JC virus is reported as “inhibited”. The protection during heatstroke result in the series with heatstroke is “protect against circulatory shocks, intracranial hypertension, and cerebral ischemia”.
In the case of `Cc1nc2sccn2c(=O)c1CCN1CCC(=C(c2ccc(F)cc2)c2ccc(F)cc2)CC1` [ritanserin], the “inverse agonist activity at 5-HT2A” value on 5-HT2A is listed as “have inverse agonist activity”. In the series on JC virus, the “JC virus infection of human glial cells” value is “inhibited”. Besides, in the series on diabetic rats, the “14.9% reduction” value is “completely reversed” and the “44.7% reduction” value is on record as “completely reversed”.
Consider `COc1cccc(CCc2ccccc2OCC(CN(C)C)OC(=O)CCC(=O)O)c1` (stereo not drawn) [sarpogrelate], for which, in the series with diabetic nephropathy, the “urinary albumin excretion level” value was “significantly reduced”. For the same compound, in the series on glaucoma patients, the IOP entry is “significantly lower”. In addition, the “analgesic effect on inflammatory pain” value in the series with inflammatory pain is given as “significant analgesic effect”. Besides, the “lower back pain, leg pain and numbness associated with sciatica” value in the series on lumbar disc herniation was “effective treatment”. Besides, in the series on thermal induced pain, the “analgesic effect on thermal induced pain” value is listed as “significant analgesic effect”. Also, in the series with diabetic rats, the “14.9% reduction” value was “completely reversed” and the “44.7% reduction” value is “completely reversed”.
